Structures can show the parent of a compound that is named as a salt.

The subject of experiment [1] is MeWo brain-metastatic derivatives. The experiment can be described thus: Brain metastasis assay, intracardiac injection into athymic nude mice. Type of experiment: in vivo, human. Particulars: oral, GW3965 diet 100 mg/kg from day 0. The method, then: Melanoma cells used for in vivo metastasis assays were transduced with a stably expressed retroviral construct encoding a luciferase reporter gene (Ponomarev et al., 2004), allowing us to monitor the in vivo progression of melanoma cells by bioluminescence imaging. The following numbers of melanoma cells, resuspended in 100 μL of PBS, were injected intravenously via the tail-vein: 4×10^4 MeWo cells, 2.5×10^5 HT-144 cells, 2×10^5 SK-Mel-334.2 cells, 5×10^4B16F10 cells, and 1×10^5 YUMM cells. The MeWo, HT-144, and SK-Mel-334.2 cells were injected into 6-8 week-old sex-matched NOD scid mice, while the B16F10 and YUMM cells were injected into 6-8 week-old sex-matched C57BL/6 mice. In all experiments assessing at the effects of GW3965 on metastasis formation, mice were pre-treated on a control diet or a GW3965-supplemented diet (20 mg/kg) for 10 days. To assess the effect of GW3965 treatment on brain metastasis, 1×10^5 MeWo brain-metastatic derivatives were injected intracardially into athymic nude mice. Immediately following injection, mice were randomly assigned to a control diet or GW3965-supplemented diet (100 mg/kg). […]

Experiment [2] has as its system B16F10 parental and DTIC-resistant cells. The experiment in a line: Tumor growth by DTIC-sensitive and DTIC-resistant B16F10 cells. The experiment is classed as in vivo, mouse. Particulars: chow supplemented with GW3965 100 mg/kg. The method, then: First, the cells were treated with 500 μg/mL DTIC for one week. Following this initial DTIC treatment, the remaining (˜10%) viable cells were allowed to recover for one week, after which 750 rag/mL of DTIC was added to the cell media for 5 days. Subsequent to this high-dose treatment, the cells were allowed to recover in the presence of low-dose DTIC (100 jag/mL) for one week. The cells were then continuously cultured in cell media containing 200 rag/mL DTIC for at least one month prior to grafting the cells into mice. DTIC was added to fresh cancer cell media every 3 days.

Experiment [3] relates to ApoE. The experiment can be described thus: ApoE expression by qRT-PCR in human melanoma cells. Type of experiment: cell-based. Particulars: parental MeWo cells; GW3965 48 hours. The method, then:
(§1) Total RNA was extracted from various cell lines using the miRvana kit (AM1560, Applied Biosystems, Austin, Tex.). The expression levels of mature miRNAs were quantified using the Taqman miRNA expression assay (4427975-0002228, Applied Biosystems). RNU44 was used as an endogenous control for normalization. For mRNA expression analyses, 600 ng of total RNA was reverse transcribed using the cDNA First-Strand Synthesis Kit (18080-051, Invitrogen), and roughly 200 ng of the resulting cDNA was then mixed with SYBR green PCR Master Mix (4309155, Applied Biosystems) and the appropriate primers. Each reaction was performed in quadruplicate, and mRNA expression was quantified by performing real-time PCR amplification using an ABI Prism 7900HT Real-Time PCR System (Applied Biosystems). GAPDH was used as an endogenous control for normalization. The following primers were used: […]
RNA was extracted from whole cell lysates using the Total RNA Purification Kit (17200, Norgen, Thorold, Canada). 600 ng of total RNA was then reverse transcribed into cDNA using the cDNA First-Strand Synthesis Kit (18080-051, Invitrogen), and quantitative real-time PCR amplification was performed as previously described (Pencheva et al., 2012) using an ABI Prism 7900HT Real-Time PCR System (Applied Biosystems, Austin, Tex.). Each PCR reaction was carried out in quadruplicates. Gene expression was normalized to GAPDH, which was used as an endogenous control.
For every sample, 600 ng of RNA was reverse transcribed into cDNA using the cDNA First-Strand Synthesis kit (Invitrogen). Approximately 200 ng of cDNA was mixed with SYBR® green PCR Master Mix and the corresponding forward and reverse primers specific for detection of human ApoE. Each reaction was carried out in quadruplicates, and ApoE mRNA expression levels were measured by quantitative real-time PCR amplification using an ABI Prism 7900HT Real-Time PCR System (Applied Biosystems). The relative ApoE expression was determined using the ΔΔCt method. GAPDH was used as an endogenous control for normalization purposes.

In experiment [4] the test system is DNAJA4. The experiment in a line: DNAJA4 expression by qRT-PCR in parental MeWo cells. The experiment is classed as cell-based, human. Particulars: GW3965 48 hours. As for the experimental part: as §1
The subject of experiment [5] is VEGF-induced endothelial recruitment. The experiment in a line: In vivo matrigel plug assay. Particulars: VEGF 400 ng/mL + recombinant ApoE3 10 μg/mL. The arrangement: species or system mouse. The method, then:
10 μg/mL recombinant human ApoE3 (4696, BioVision), 10 μg/mL BSA (A2153, Sigma Aldrich), or 400 ng/ml VEGF were mixed with matrigel (356231, BD Biosciences) as indicated. 400 μL of matrigel containing the indicated recombinant proteins were injected subcutaneously just above the ventral flank of immunocompromised NOD-SCID mice. Plugs were extracted on day 3 post-injection and fixed in 4% paraformaldehyde for 48 hours. Plugs were then paraffin-embedded and sectioned at 5-μm-thick increments. Plug cross-sectional sections were immunohistochemically stained using a primary antibody against the mouse endothelial antigen MECA-32 (Developmental Studies Hybridoma Bank, The University of Iowa, IA), detected by peroxidase-conjugated secondary antibody, and subsequently visualized by DAB oxidization. To quantify the extent of endothelial cell invasion into each matrigel plug, the number of endothelial cells was counted in 4-5 random fields for each plug, and the average number of endothelial cells per given plug area was calculated.

For experiment [6], the system named is breast cancer, renal cell cancer, and pancreatic cancer cell lines. The experiment in a line: Matrigel invasion of breast, renal cell and pancreatic cancer cell lines with recombinant ApoE. The experiment is classed as cell-based, human. Particulars: recombinant ApoE3 100 μg/mL vs BSA. The method, then: The ability of cancer cells to invade through matrigel in vitro was tested by using a trans-well matrigel invasion chamber system (354480, BD Biosciences). Various cancer cell lines were serum-starved overnight in media containing 0.2% FBS. The following day, invasion chambers were pre-equilibrated prior to the assay by adding 0.5 mL of starvation media to the top and bottom wells. Meanwhile, cancer cells were trypsinized and viable cells were counted using the trypan blue dead cell exclusion dye. Cancer cells were then resuspended at a concentration of 1×10^5 cells/1 mL starvation media, and 0.5 mL of cell suspension, containing 5×10^4 cells, was seeded into each trans-well. To determine the effect of recombinant ApoE on cancer cell invasion, human recombinant ApoE3 (4696, Biovision) or BSA were added to each trans-well at 100 μg/mL at the start of the assay. The invasion assay was allowed to proceed for 24 hours at 37° C. […] Following fixation, the inserts were washed in PBS and then cut out and mounted onto slides using VectaShield mounting medium containing DAPI nuclear stain (H-1000, Vector Laboratories). The basal side of each insert was imaged using an inverted fluorescence microscope (Zeiss Axiovert 40 CFL) at 5× magnification, and the number of DAPI-positive cells was quantified using ImageJ.

For the molecule `O=C(O)Cc1cccc(OCCCN(Cc2cccc(C(F)(F)F)c2Cl)CC(c2ccccc2)c2ccccc2)c1` [GW3965 2, 3-[3-[N-(2-Chloro-3-trifluoromethylbenzyl)-(2,2-diphenylethyl)amino]propyloxy] phenylacetic acid hydrochloride], in experiment [1], the “systemic dissemination and brain colonization” value is “inhibited”. For the same molecule, the “suppression of tumor growth by the DTIC-resistant B16F10 clone” value in experiment [2] is “more than 70%”. Further, in experiment [3], the “expression of ApoE” value was “increased”. In addition, in experiment [4], the “expression of DNAJA4” value is “increased”.
On to “recombinant human ApoE: recombinant human ApoE3 (4696, BioVision)”, for which the “suppression of VEGF-induced endothelial recruitment into subcutaneous matrigel plugs” value in experiment [5] is “greater than 40 fold”. Moreover, the tumor cell invasion entry in experiment [6] is “inhibited”.
